One data set relates to Monocyte. In words: Inhibition of LPS-induced MCP-1 production in mouse Monocyte.
Data set [1] can be described thus: Drug concentration in LPS induced mouse plasma at 100 mg/kg measured after 2 hrs. Format: ADME, organism-based.
Data set [2] can be described thus: Drug concentration in LPS induced mouse plasma at 10 mg/kg measured after 2 hrs. Format: ADME, organism-based.
Data set [3] relates to Mus musculus. As to the kind of experiment: Anti-inflammatory activity in endotoxemia mouse model assessed as suppression of LPS-induced serum IL-6 level at 10 mg/kg, po preincubated for 30 mins followed by LPS stimulation and measured after 90 mins. The settings on record: time 120.0 min. The format is functional, organism-based.
Data set [4] has as its system Mus musculus. In words: Anti-inflammatory activity in endotoxemia mouse model assessed as suppression of LPS-induced serum MCP-1 level at 10 mg/kg, po preincubated for 30 mins followed by LPS stimulation and measured after 90 mins. Conditions: time 120.0 min. The format is functional, organism-based.

Active and inactive are the calls of the source. The calls are words filed in the database; no cut-off is given here.

In the data set on Monocyte, `Cc1sc2c(c1C)C(c1ccc(Cl)cc1)=N[C@@H](CC(=O)OC(C)(C)C)c1nnc(C)n1-2` returned an IC50 of 2 nM.
As to `Cc1csc(-c2cn(C)c(=O)c3cn(CC4CC(C(=O)NC5CCCCC5)CCN(C)C4)nc23)n1` (stereo unspecified), the concentration at 2 h was determined as 0.707 µg/mL in data set [1] and 0.0391 µg/mL in data set [2]. Also, the result in the data set on Mus musculus [3] and with Mus musculus [4] was Active. Besides, the IC50 in the data set on Monocyte was 1 nM.

What is called IC50 is the concentration that inhibits the measured activity by half.
